Assay results as given in PubChem BioAssay (NCI).
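Each compound was tested at five concentrations against cells in 96-well plates for 48 hours. GI50 = concentration required for 50% inhibition of growth. TGI: total growth inhibition.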

Assays:
Assay in all cases: NCI-60 cell line screen, 48 h
HOP-62 NSCLC = test system: HOP-62 NSCLC
HT29 colon = test system: HT29 colon
OVCAR-8 ovarian = test system: OVCAR-8 ovarian
TK-10 renal = test system: TK-10 renal
SF-268 CNS = test system: SF-268 CNS
EKVX NSCLC = test system: EKVX NSCLC
HCT-116 colon = test system: HCT-116 colon
MALME-3M melanoma = test system: MALME-3M melanoma
K-562 leukemia = test system: K-562 leukemia
OVCAR-3 ovarian = test system: OVCAR-3 ovarian
SNB-19 CNS = test system: SNB-19 CNS
SNB-75 CNS = test system: SNB-75 CNS
HS 578T breast = test system: HS 578T breast
NCI-H522 lung = test system: NCI-H522 lung
ACHN renal = test system: ACHN renal
UACC-62 melanoma = test system: UACC-62 melanoma
SF-295 CNS = test system: SF-295 CNS
MCF7 breast = test system: MCF7 breast
UACC-257 melanoma = test system: UACC-257 melanoma
IGROV1 ovarian = test system: IGROV1 ovarian
T-47D breast = test system: T-47D breast
HCC-2998 colon = test system: HCC-2998 colon
LOX IMVI melanoma = test system: LOX IMVI melanoma
NCI-H23 lung = test system: NCI-H23 lung
MDA-MB-231 breast = test system: MDA-MB-231 breast
SK-MEL-28 melanoma = test system: SK-MEL-28 melanoma
CCRF-CEM leukemia = test system: CCRF-CEM leukemia
COLO 205 colon = test system: COLO 205 colon
CAKI-1 renal = test system: CAKI-1 renal
OVCAR-5 ovarian = test system: OVCAR-5 ovarian
SK-OV-3 ovarian = test system: SK-OV-3 ovarian
NCI-H226 lung = test system: NCI-H226 lung
SW-620 colon = test system: SW-620 colon
U251 CNS = test system: U251 CNS
SK-MEL-5 melanoma = test system: SK-MEL-5 melanoma
KM12 colon = test system: KM12 colon
RPMI-8226 leukemia = test system: RPMI-8226 leukemia
MDA-MB-435 = test system: MDA-MB-435
MOLT-4 leukemia = test system: MOLT-4 leukemia
M14 melanoma = test system: M14 melanoma
A549 NSCLC = test system: A549 NSCLC
NCI-H460 lung = test system: NCI-H460 lung
SK-MEL-2 melanoma = test system: SK-MEL-2 melanoma
SN12C renal = test system: SN12C renal
OVCAR-4 ovarian = test system: OVCAR-4 ovarian
HCT-15 colon = test system: HCT-15 colon
PC-3 prostate = test system: PC-3 prostate
UO-31 renal = test system: UO-31 renal
786-0 renal = test system: 786-0 renal
NCI/ADR-RES ovarian = test system: NCI/ADR-RES ovarian
DU-145 prostate = test system: DU-145 prostate

COc1cc2c3c(n(CCCN)c(=O)c2cc1OC)-c1ccc(C#N)cc1C3=O
GI50 (HOP-62 NSCLC): 4.01 µM | TGI (HOP-62 NSCLC): 19.1 µM | GI50 (HT29 colon): 8.52 µM | TGI (HT29 colon): 29.1 µM | GI50 (OVCAR-8 ovarian): 5.54 µM | TGI (OVCAR-8 ovarian): 24.9 µM | GI50 (TK-10 renal): 16.9 µM | TGI (TK-10 renal): 41.3 µM | GI50 (SF-268 CNS): 14.7 µM | TGI (SF-268 CNS): 42.4 µM | GI50 (EKVX NSCLC): 19 µM | TGI (EKVX NSCLC): 41.9 µM | GI50 (HCT-116 colon): 15.8 µM | TGI (HCT-116 colon): 32.3 µM | GI50 (MALME-3M melanoma): 18.9 µM | TGI (MALME-3M melanoma): 73.3 µM | TGI (K-562 leukemia): 65.4 µM | GI50 (OVCAR-3 ovarian): 19.1 µM | TGI (OVCAR-3 ovarian): 39.9 µM | GI50 (SNB-19 CNS): 11.6 µM | TGI (SNB-19 CNS): 30.4 µM | GI50 (SNB-75 CNS): 0.562 µM | TGI (SNB-75 CNS): 16.1 µM | GI50 (HS 578T breast): 18 µM | TGI (HS 578T breast): 41.5 µM | GI50 (NCI-H522 lung): 9.61 µM | TGI (NCI-H522 lung): > 100 µM | GI50 (ACHN renal): 14.9 µM | TGI (ACHN renal): 28.5 µM | GI50 (UACC-62 melanoma): 17 µM | TGI (UACC-62 melanoma): 32.2 µM | GI50 (SF-295 CNS): 11.1 µM | TGI (SF-295 CNS): 33.6 µM | GI50 (MCF7 breast): 8.36 µM | TGI (MCF7 breast): 40.1 µM | GI50 (UACC-257 melanoma): 28.5 µM | TGI (UACC-257 melanoma): > 100 µM | GI50 (IGROV1 ovarian): 8.79 µM | TGI (IGROV1 ovarian): > 100 µM | GI50 (T-47D breast): 13.2 µM | TGI (T-47D breast): 34.9 µM | GI50 (HCC-2998 colon): 3.05 µM | TGI (HCC-2998 colon): 15 µM | GI50 (LOX IMVI melanoma): 13.6 µM | TGI (LOX IMVI melanoma): 30 µM | GI50 (NCI-H23 lung): 9.02 µM | TGI (NCI-H23 lung): 25.6 µM | GI50 (MDA-MB-231 breast): 14.3 µM | TGI (MDA-MB-231 breast): 29.3 µM | GI50 (SK-MEL-28 melanoma): 18.5 µM | TGI (SK-MEL-28 melanoma): 35.7 µM | GI50 (CCRF-CEM leukemia): 6.44 µM | TGI (CCRF-CEM leukemia): 31.7 µM | GI50 (COLO 205 colon): 13.2 µM | TGI (COLO 205 colon): 28.7 µM | GI50 (CAKI-1 renal): 34.9 µM | TGI (CAKI-1 renal): > 100 µM | GI50 (OVCAR-5 ovarian): 18 µM | TGI (OVCAR-5 ovarian): 33.2 µM | GI50 (SK-OV-3 ovarian): 12.7 µM | TGI (SK-OV-3 ovarian): 28 µM | GI50 (NCI-H226 lung): 17.3 µM | TGI (NCI-H226 lung): 38 µM | GI50 (SW-620 colon): 11 µM | TGI (SW-620 colon): 30.6 µM | GI50 (U251 CNS): 13 µM | TGI (U251 CNS): 28.4 µM | GI50 (SK-MEL-5 melanoma): 16.4 µM | TGI (SK-MEL-5 melanoma): 32.6 µM | GI50 (KM12 colon): 4.88 µM | TGI (KM12 colon): > 100 µM | GI50 (RPMI-8226 leukemia): 19.1 µM | TGI (RPMI-8226 leukemia): 41.5 µM | GI50 (MDA-MB-435): 18.6 µM | TGI (MDA-MB-435): 39.9 µM | GI50 (MOLT-4 leukemia): 0.748 µM | TGI (MOLT-4 leukemia): 3.49 µM | GI50 (M14 melanoma): 15.3 µM | TGI (M14 melanoma): 31.6 µM | GI50 (A549 NSCLC): 5.53 µM | TGI (A549 NSCLC): 22.1 µM | GI50 (NCI-H460 lung): 7.16 µM | TGI (NCI-H460 lung): 26.9 µM | GI50 (SK-MEL-2 melanoma): 26.2 µM | TGI (SK-MEL-2 melanoma): > 100 µM | GI50 (SN12C renal): 16.8 µM | TGI (SN12C renal): 32.8 µM | GI50 (OVCAR-4 ovarian): 20 µM | TGI (OVCAR-4 ovarian): 41.3 µM | GI50 (HCT-15 colon): 15.4 µM | TGI (HCT-15 colon): 30.6 µM | GI50 (PC-3 prostate): 15 µM | TGI (PC-3 prostate): 36.5 µM | GI50 (UO-31 renal): 19.1 µM | TGI (UO-31 renal): 71.2 µM | GI50 (786-0 renal): 4.43 µM | TGI (786-0 renal): 20.3 µM | GI50 (NCI/ADR-RES ovarian): 48 µM | TGI (NCI/ADR-RES ovarian): > 100 µM | GI50 (DU-145 prostate): 12.3 µM | TGI (DU-145 prostate): 25.5 µM
